Data from US20110236886A1, “PATHOGENICITY DETERMINANTS WHICH CAN BE USED AS TARGETS FOR DEVELOPING MEANS FOR PREVENTING AND CONTROLLING BACTERIAL INFECTIONS AND/OR SYSTEMIC DISSEMINATION” (priority 2002, published 2011).

Columns and labels:
S. agalactiae NEM316 = assay: Disk diffusion sensitivity to cationic antimicrobial peptides, wild type strain; format: cell-based, Streptococcus agalactiae; details: blood agar plates, 18 hours at 37° C., disc content colistin 50 μg, polymixin B 10 μg
Description: (§1) The sensitivity of wild type S. agalactiae NEM316 and DltD mutant to cationic antimicrobial peptides was measured by using a disk diffusion methods. The 2 strains were grown on blood agar plates and incubated for 18 hours at 37° C. Each strain was tested using colistin (50 μg) and polymixin (10 μg) disks. Sensitivity or resistance of NEM316 strain and the DltD mutant to each compound was determined by the size of the growth inhibition area around disk.

[1] = system: DltD mutant of S. agalactiae NEM316; assay: Disk diffusion sensitivity to cationic antimicrobial peptides, DltD mutant; format: cell-based, Streptococcus agalactiae; details: for Inhibition area (mm) Mutant DltD: blood agar plates, 18 hours at 37° C., disc content colistin 50 μg, polymixin B 10 μg; for Sensitivity of the DltD mutant to the peptide compared with wild type: result in words
Description: as §1

## colistin
S. agalactiae NEM316
  Inhibition area (mm) NEM316: 0 mm
[1]
  Inhibition area (mm) Mutant DltD: 14 mm
  Sensitivity of the DltD mutant to the peptide compared with wild type: increased sensitivity

## polymyxin B [Polymixin B]
S. agalactiae NEM316
  Inhibition area (mm) NEM316: 0 mm
[1]
  Inhibition area (mm) Mutant DltD: 14 mm
  Sensitivity of the DltD mutant to the peptide compared with wild type: increased sensitivity
